Tests used:
Human Liver ALP = target: T1, Human Liver ALP (Homo sapiens, UniProt P05186); assay: Ki of inhibitors for human liver ALP (Table 1); assay type: biochemical; settings: Enzyme: Human Liver
T1 sequence (P05186 18-502 limits assumed): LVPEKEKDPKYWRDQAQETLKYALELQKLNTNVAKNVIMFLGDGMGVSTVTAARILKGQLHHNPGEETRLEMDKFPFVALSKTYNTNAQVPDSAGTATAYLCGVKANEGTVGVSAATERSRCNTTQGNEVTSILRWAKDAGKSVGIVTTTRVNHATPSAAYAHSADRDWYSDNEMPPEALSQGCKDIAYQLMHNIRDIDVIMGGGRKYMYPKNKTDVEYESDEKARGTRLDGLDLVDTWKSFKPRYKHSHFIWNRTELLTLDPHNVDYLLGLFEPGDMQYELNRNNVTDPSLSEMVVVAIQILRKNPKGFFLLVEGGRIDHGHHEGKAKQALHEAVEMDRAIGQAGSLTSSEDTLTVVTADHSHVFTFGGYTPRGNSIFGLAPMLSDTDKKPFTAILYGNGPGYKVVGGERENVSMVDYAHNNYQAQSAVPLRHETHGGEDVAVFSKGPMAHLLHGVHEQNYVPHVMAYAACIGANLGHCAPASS
Excerpt: Another approach to reduce the effects of the human ALPs is to use inhibitors of ALPs in the substrate solution.

[1] = target: T2, ALPs in Sarcoma 180/TG ascites cells (Mus musculus, UniProt P09242); settings: J. Med. Chem. 1977, 20: 563-566; cited from earlier work
T2 construct: host or cells: Sarcoma 180/TG ascites cells
T2 sequence (P09242 18-502 limits assumed): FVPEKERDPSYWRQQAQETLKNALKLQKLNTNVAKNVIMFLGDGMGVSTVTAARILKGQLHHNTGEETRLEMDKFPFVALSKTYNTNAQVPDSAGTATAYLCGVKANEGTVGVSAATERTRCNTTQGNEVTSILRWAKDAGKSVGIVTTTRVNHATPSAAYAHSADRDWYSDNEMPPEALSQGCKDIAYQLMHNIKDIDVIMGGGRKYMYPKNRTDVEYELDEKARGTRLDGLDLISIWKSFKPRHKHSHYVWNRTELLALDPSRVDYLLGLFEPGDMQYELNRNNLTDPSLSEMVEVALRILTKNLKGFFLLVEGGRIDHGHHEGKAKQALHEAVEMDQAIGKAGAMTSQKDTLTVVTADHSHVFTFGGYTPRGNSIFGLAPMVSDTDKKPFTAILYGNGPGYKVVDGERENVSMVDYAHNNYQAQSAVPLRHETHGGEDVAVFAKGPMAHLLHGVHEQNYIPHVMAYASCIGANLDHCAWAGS

[2] = system: endogenous ALP (high molecular weight and/or elevated normal ALP) in patient serum samples; assay: Background signal from endogenous ALP of patient serum samples on Stratus Fluorometric Analyzer, using each substrate/wash composition; set-up: species or system human; settings: patient serum Samples 1-3 (FIGS. 1-3); ALP conjugate, 4-MUP substrate; rate in mv/min
Description: Three carcinoembryonic antigen (CEA) positive patient serum samples (Samples 1, 2, and 3) were identified as having high molecular weight ALP and/or elevated levels of normal ALP. These samples were tested using the compositions of this invention. The patient samples were evaluated on an automated immunoassay analyzer (the Stratus^R Fluorometric Analyzer from Baxter Diagnostics Inc.) which utilizes an ALP conjugate and a 4-MUP substrate. This automated analyzer combines the wash step with the substrate addition step. See, U.S. Pat. No. 4,517,288. The commercially available substrate composition (XWS) has the dual function of washing the solid phase and initiating the ALP reaction. […]
(§1) The samples were evaluated on the analyzer using each composition as the substrate/wash. […]
Five patient samples, Samples 1, 2, and 3 (as described in Example 1), Sample 4 (which originated from a patient who tested positive for colon cancer) and Sample 5 (which originated from a patient who tested positive for breast cancer) were identified as having high molecular weight ALP and/or elevated levels of normal ALP. These samples were evaluated using the compositions of this invention. The patient samples were evaluated on the automated immunoassay analyzer described in Example 1. […]
as §1

Compound	Ki (Human Liver ALP) [µM]	Ki [1] [µM]	background signal generated from endogenous ALP / false positive reading [2]
Brc1ccc([C@H]2CN3CCSC3=N2)cc1 [Bromolevamisole]	98.5		
C1=CN2CC(c3ccc4ccccc4c3)N=C2S1 (stereo not shown) [Naphthyl, 5,6-Dihydro-6-(2-naphthyl)imidazo-[2,1-b]thiazole]	30.3	~1	substantially lowers the background signal
